Assay results from ChEMBL document CHEMBL2429761, “Discovery of ML314, a Brain Penetrant Non-Peptidic β-Arrestin Biased Agonist of the Neurotensin NTR1 Receptor” (ACS Med Chem Lett, 2013).
pEC50, pKi: −log10 of the molar value. Converted amounts (≈) assume the structure as drawn.

Key:
Liver microsomes = assay: Metabolic stability in human liver microsomes assessed as compound remaining at 1 to 10 uM after 1 hr by LC-MS/MS analysis; assay type: ADME, Microsome
Mus musculus = assay: Hepatic clearance in C57BL/6J mouse at 2 mg/kg, iv by LC-MS/MS analysis; assay type: ADME, organism-based, Liver; design: dose 2 mg/kg, route intravenous; details: in vivo
[1] = Kinetic solubility of the compound in pION buffer at 250 uM after 18 hrs at pH 5; assay type: physicochemical; details: read-out: Kinetic_solubility
[2] = target: T1, Alpha-1D adrenergic receptor (Homo sapiens) (UniProt P25100); assay: Binding affinity to adrenergic alpha1D receptor (unknown origin) at 10 uM relative to control
T1 sequence (whole entry): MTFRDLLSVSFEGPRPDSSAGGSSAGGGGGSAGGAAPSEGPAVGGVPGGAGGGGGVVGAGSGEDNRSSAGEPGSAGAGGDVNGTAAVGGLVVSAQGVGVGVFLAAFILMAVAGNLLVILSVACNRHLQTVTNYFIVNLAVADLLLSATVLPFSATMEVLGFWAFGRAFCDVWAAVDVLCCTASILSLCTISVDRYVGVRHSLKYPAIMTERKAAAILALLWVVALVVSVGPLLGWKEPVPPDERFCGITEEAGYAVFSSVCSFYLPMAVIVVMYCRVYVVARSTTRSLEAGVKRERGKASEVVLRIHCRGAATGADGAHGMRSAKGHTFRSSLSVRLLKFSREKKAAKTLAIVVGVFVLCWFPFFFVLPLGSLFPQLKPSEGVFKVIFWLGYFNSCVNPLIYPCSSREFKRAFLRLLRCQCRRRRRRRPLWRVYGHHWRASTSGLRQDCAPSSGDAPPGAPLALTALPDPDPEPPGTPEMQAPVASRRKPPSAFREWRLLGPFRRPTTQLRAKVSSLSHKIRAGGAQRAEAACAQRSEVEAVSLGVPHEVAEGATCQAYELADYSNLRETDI

Liver = assay: Metabolic stability in mouse liver microsomes assessed as compound remaining at 1 to 10 uM after 1 hr by LC-MS/MS analysis; assay type: ADME, Microsome
[3] = target: T2, Alpha-2A adrenergic receptor (Homo sapiens) (UniProt P08913); assay: Binding affinity to adrenergic alpha2A receptor (unknown origin) at 10 uM relative to control
T2 sequence (whole entry): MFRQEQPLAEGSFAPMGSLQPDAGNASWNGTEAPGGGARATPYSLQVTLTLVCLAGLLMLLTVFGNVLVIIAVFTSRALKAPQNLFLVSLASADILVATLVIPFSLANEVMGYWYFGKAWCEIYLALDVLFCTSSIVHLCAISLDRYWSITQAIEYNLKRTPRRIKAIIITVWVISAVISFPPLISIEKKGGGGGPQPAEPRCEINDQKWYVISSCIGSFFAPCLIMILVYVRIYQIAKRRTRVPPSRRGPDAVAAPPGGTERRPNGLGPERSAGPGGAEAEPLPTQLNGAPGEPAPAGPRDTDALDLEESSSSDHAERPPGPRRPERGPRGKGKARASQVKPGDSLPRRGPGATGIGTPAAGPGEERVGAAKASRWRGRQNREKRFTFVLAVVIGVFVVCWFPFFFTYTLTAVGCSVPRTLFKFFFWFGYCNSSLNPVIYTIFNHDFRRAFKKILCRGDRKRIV

[4] = tested on: Mycobacterium tuberculosis; assay: Antibacterial activity against Mycobacterium tuberculosis H37Rv assessed as growth inhibition; assay type: functional
[5] = target: T3, Neurotensin receptor type 1 (Homo sapiens, UniProt P30989); details: U2OS
Description: Agonist activity at NTR1 (unknown origin) expressed in human U2OS cells coexpressing beta-arrestin by GFP reporter gene assay

[6] = target: 5-hydroxytryptamine receptor 7 (Homo sapiens, UniProt P34969); assay: Binding affinity to 5-HT7 receptor (unknown origin)
Translocator protein = Translocator protein (Homo sapiens, UniProt P30536); assay: Binding affinity to PBR receptor (unknown origin)
[7] = Kinetic solubility of the compound in PBS buffer at 250 uM after 18 hrs at pH 7.4; assay type: physicochemical; details: read-out: Kinetic_solubility
[8] = target: T3, Neurotensin receptor type 1; assay: Agonist activity at NTR1 (unknown origin) expressed in CHO cells assessed as stimulation of calcium flux; assay type: functional, cell-based
Plasma = assay: Plasma protein binding in mouse at 10 uM after 4 hrs by LC-MS/MS analysis; assay type: ADME, cell-free
[9] = Effective permeability of the compound at 50 uM after 30 mins at donor pH 6.2 and acceptor pH 7.4 by PAMPA; assay type: ADME; details: pH 6.2, 0.5 h
[10] = Drug uptake in C57BL/6J mouse brain at 30 mg/kg, ip after 1 hr by LC-MS/MS analysis; assay type: ADME, organism-based; design: dose 30 mg/kg, route intraperitoneal; details: read-out: Drug uptake
[11] = target: T3, Neurotensin receptor type 1; assay: Agonist activity at NTR1 (unknown origin) expressed in CHOK1 cells by beta-arrestin assay relative to neurotensin (8 to 13); assay type: cell-based; details: CHO-K1
Mu-type opioid receptor = Mu-type opioid receptor (Homo sapiens, UniProt P35372); assay: Binding affinity to mu opioid receptor (unknown origin)
Sequence of Mu-type opioid receptor (P35372 whole entry): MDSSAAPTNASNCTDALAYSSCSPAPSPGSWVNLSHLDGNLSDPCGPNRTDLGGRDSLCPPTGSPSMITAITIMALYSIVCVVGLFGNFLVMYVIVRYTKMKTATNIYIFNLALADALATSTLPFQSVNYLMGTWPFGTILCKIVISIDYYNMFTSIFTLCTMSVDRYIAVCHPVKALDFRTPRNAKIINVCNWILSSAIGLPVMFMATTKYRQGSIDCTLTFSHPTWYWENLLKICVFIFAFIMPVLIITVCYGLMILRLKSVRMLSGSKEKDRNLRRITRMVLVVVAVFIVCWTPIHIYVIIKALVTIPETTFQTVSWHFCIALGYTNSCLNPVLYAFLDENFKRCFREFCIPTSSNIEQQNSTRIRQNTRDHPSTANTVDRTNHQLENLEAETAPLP

T3 sequence (P30989 whole entry): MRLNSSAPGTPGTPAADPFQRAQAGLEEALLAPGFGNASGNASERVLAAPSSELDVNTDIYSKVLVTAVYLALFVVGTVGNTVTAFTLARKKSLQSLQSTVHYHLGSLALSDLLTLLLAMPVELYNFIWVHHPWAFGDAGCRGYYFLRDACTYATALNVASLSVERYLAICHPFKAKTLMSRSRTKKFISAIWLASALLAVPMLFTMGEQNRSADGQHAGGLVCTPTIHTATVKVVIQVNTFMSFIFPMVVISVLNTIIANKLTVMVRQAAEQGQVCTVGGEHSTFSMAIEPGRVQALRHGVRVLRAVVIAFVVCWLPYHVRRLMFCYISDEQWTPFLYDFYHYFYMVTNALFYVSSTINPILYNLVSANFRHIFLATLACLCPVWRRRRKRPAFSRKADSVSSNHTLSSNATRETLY
Sequence of Translocator protein (P30536 whole entry): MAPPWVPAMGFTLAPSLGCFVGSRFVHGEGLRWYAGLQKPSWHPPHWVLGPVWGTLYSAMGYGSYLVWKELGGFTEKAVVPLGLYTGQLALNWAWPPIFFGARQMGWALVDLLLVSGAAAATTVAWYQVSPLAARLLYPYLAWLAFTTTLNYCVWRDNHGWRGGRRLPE
Sequence of 5-hydroxytryptamine receptor 7 (P34969 whole entry): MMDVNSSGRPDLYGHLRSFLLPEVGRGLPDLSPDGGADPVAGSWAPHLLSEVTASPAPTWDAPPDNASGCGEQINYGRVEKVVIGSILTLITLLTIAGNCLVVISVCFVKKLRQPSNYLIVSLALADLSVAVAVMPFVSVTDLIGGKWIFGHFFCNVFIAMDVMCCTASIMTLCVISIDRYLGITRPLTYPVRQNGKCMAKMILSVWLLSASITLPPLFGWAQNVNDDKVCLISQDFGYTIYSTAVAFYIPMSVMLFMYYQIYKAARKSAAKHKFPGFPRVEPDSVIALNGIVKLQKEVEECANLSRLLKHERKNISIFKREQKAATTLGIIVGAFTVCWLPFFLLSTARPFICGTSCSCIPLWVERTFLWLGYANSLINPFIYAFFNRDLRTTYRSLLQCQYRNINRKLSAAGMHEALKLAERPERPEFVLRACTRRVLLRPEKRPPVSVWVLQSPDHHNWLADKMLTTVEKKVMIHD

SMILES: COc1cc2nc(C3CC3)nc(N3CCN(c4ccccc4OC)CC3)c2cc1OC
- Stability (Liver microsomes): 1.4%
- CLH (Mus musculus): 81 mL/min/kg
- solubility kinetic at 18 h, 250 µM [1]: > 297 µM
- Activity [2]: 63%
- Stability (Liver): 0.2%
- Activity [3]: 63%
- GI [4]: 3.9 µM
- EC100 [5]: 10 µM
- pKi [6]: 6.03
- pKi (Translocator protein): 5.60
- solubility kinetic at 18 h, 250 µM [7]: 1.1 µM (≈ 0.463 µg/mL)
- pEC50 [8]: < 4.10
- PPB (Plasma): 98.9%
- Peff [9]: 2140 ×10⁻⁶ cm/s
- concentration at 1 h [10]: 1510 ng/mL
- Emax [11]: 86.6%
- pKi (Mu-type opioid receptor): 5.81
